In BindingDB's records for doi:10.1016/j.bmc.2009.08.006 (Universitat de Barcelona, 2009):

These molecules were tested against 5-hydroxytryptamine receptor 6 (Homo sapiens, UniProt P50406) (assay: 5-HT6 Binding Assay). Conditions: pH 7.4; 37 °C.
Description: The incubation was initiated by addition of membrane to reaction buffer contained radioligand in the presence of test compound. And the incubation time was 60 min at 37 deg C. After incubation, the membranes were collected onto polyethylenimine-pretreated glass fiber filters. Radioactivity was determined by scintillation counting. Nonspecific binding was determined with 100 uM serotonin. Competition binding data were analyzed by using the LIGAND program, and assays were performed in triplicate determinations for each point.

Sequence of 5-hydroxytryptamine receptor 6 (P50406 whole entry): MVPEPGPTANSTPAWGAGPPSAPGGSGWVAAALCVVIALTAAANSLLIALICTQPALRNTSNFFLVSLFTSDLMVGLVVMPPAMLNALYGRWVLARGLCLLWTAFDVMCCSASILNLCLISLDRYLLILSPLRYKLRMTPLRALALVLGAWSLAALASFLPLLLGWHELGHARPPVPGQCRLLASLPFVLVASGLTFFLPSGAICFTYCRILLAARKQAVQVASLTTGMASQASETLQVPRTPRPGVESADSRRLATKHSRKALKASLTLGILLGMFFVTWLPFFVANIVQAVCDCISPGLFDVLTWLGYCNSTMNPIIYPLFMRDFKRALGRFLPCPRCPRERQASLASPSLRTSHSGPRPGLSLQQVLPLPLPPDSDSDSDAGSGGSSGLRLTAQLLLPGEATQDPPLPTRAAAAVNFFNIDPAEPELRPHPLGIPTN

| IC50 [nM] | SMILES | EC50 [nM] | Ki [nM] |
| --- | --- | --- | --- |
| – | Cc1cn(S(=O)(=O)c2ccc(N)cc2)c2ccccc12 [4-(3-methyl-1H-indole-1-sulfonyl)aniline, 8] | 320 | – |
| – | CN(C)CCc1c[nH]c2ccc(NS(=O)(=O)c3ccc4c(Cl)cccc4c3)cc12 | 0.29 | – |
| – | O=S(=O)(Nc1ccc2[nH]cc(C[C@H]3CCCN3)c2c1)c1ccccc1I [(R)-5a] | 0.4 | 1 |
| – | CN(C)Cc1cn(S(=O)(=O)c2ccccc2)c2ccccc12 | 880 | – |
| – | CN1CCC(c2cn(S(=O)(=O)c3ccccc3Br)c3ccccc23)C1 (centres undefined) | 53.3 | – |
| 3000 | CC1=Cc2cc(NS(=O)(=O)c3c(Cl)nc4sccn34)ccc2C1 [indenylsulfonamide, 47+48] | – | 43 |
| – | CN1CCC[C@H]1Cc1c[nH]c2ccc(NS(=O)(=O)c3ccc(C(F)(F)F)cc3)cc12 [pyrrolidinylindole, (S)-5b] | 21.6 | – |
